Laboratory results taken from patent publication US20220280602A1, “ANTICANCER AGENT AND METHOD FOR PREPARATION OF POROUS SILICA PARTICLE” (LEMONEX INC., priority 2019, published 2022).

How the values were obtained:
[1] = test system: MCF-7 cells expressing LC3-GFP; assay: Measurement of the number of GFP-LC3 puncta (autophagy induction); assay type: cell-based; settings: MCF-7 expressing LC3-GFP, 6 hours, serum-free medium
Procedure: Using lipofectamine 2000, LC3-GFP plasmid was transfected into MCF-7 cells. Transfected MCF-7 was selected with 800 μg/mL of G418 for 3 months. […] 100,000 MCF-7 cells expressing LC3-GFP were seeded.
40 μg of dye-labeled particles and 4 μg of bec1 peptide were mixed, and the cells were treated for 6 hours in a serum-free medium. Cells were fixed with 4% PFA, and nuclei were stained with DAPI. Images were obtained with a Delta-vision microscope, and the number of GFP-LC3 puncta was measured in 100 cells for each group.

MCF-7 cells = assay: Assessment of cytotoxicity by MTT assay; assay type: cell-based; settings: 1 day treatment
Procedure: MCF-7 cells were seeded at 10,000 cells/well in 96-well cell culture plates. After 1 day, different concentrations of each particle (4 to 500 μg/mL) were treated with a serum-containing medium in each well for 1 day. Thereafter, the culture was performed for 4 hours while replacing the above medium with a serum-free medium containing 10 μl of MTT assay kit, and the supernatant was aspirated. DMSO was added to each well to dissolve formazan, and reacted for 1 hour. The absorbance was measured at a wavelength of 570 nm, and the cell viability was calculated as a relative value to that of the untreated group.

## CGGTNVFNATFHIWHSGQFGT (listed as Homo sapiens) [Bec1 peptide]
[1]
  Amount of GFP puncta: very little amount
MCF-7 cells
  Cell viability compared to non-treated group: not significantly varied
